In PMC5286520 (Scientific Reports, 2017):
Where two headings read alike, the source gives them in different places. Bridge positions count the residues as written; N and C are the ends. Square brackets hold non-standard residues; d marks the D form. Peptide text beside a SMILES is read from it.

What was measured:
human myometrium = experiment: Ex vivo human myometrial contractility, vasopressin-augmented (0.5 nM); conditions: vasopressin 0.5 nM
[1] = assay type: in vitro ADME, human
Description: Serum stability was tested as described previously. Briefly, serum was obtained prepared from human blood (self-donor), allowed to coagulate for 2 h at 23 °C and centrifuged at 12,000 × g for 10 min. Peptides (100 μM) were incubated in serum for 2, 4, 6, 8, 10 and 24 h at 37 °C. To evaluate peptide stability, aliquots ([…]) were analysed via RP-HPLC (UltiMate 3000, Thermo Scientific Dionex, Vienna, Austria) on a C18 column (Phenomenex Kinetex, Aschaffenburg, Germany) with a 3% gradient using 0.1% (v/v) TFA and 90/10/0.1% (v/v/v) acetonitrile/H2O/TFA as eluents. Half-life (t1/2) of peptides was calculated using non-linear regression analysis using Graph Pad Prism.
Supplementary Fig. 5. Human serum stability of the inotocin D-analogue. [D-Arg 8 ]-inotocin […]
serum and their stability monitored via HPLC over a time course of 2, 4, 6, 8, 10 and 24 h. Melittin, a haemolytic peptide from the bee venom was used as a positive control f or peptide degradation.
Area under the curves of samples was determined and correlated to the negative control analyte, which was dissolved in 0.1% TFA; thus they were not subject to degradation and were assumed therefore as 100%. Peptide stability was expressed in percentage of peptide remaining.
(1 picture or pasted object on this page, not shown here)

human V2R [2] = target: T1, human V2R (Homo sapiens, UniProt P30518); experiment: Radioligand displacement of [3H] vasopressin, human V2R membranes; assay type: binding
T1 construct: expressed in transfected cells; host or cells: HEK293 cells, transient (jetPRIME); for the reporter assay co-transfected with pGL4.29 [luc2P/CRE/Hygro]
Description: (§1) Chinese Hamster Ovary cells (CHO) were cultured in Ham’s F12 media supplemented with 10% fetal bovine serum (FBS), 1% PenStrep (all from Sigma-Aldrich, Munich, Germany) and grown in a humidified atmosphere of 37 °C, 5% CO2 and passaged on average twice per week. CHO cells were used for expression of inotocin receptor (L. niger, T. castaneum). Cell transfections were carried out with 10 μg of plasmid using Lipofectamine LTX (Life Technologies, Invitrogen, Carlsbad, USA) for invertebrate receptors. For the expression of human OTR, V1aR, V1bR and V2R, HEK293 cells were transfected using jetPRIME (Polyplus Transfections, Illkirch-Graffenstaden, France)[35]. Cells were maintained in DMEM (GE Healthcare Hy Clone™, Logan, USA) supplemented with 10% FBS and 1% PenStrep.
(§2) Unbound ligands were washed off (Skatron Cell Harvester). […] Bindings of [^3H] AVP and [^3H] […] Bindings of [^3H] inotocin to membranes (10 μg) expressing INTR from L. niger, or [^3H] inotocin to membranes (10 μg) expressing INTR from T. castaneum, respectively, were assayed for displacement with an excess of inotocin (10^−11 to 10^−5 M) (n ≥ 3, except where otherwise stated). […] Specific binding was calculated by subtracting the non-specific binding from the total binding. IC50 values were obtained by fitting the data to a three-parameter logistic Hill equation. Inhibition constants (Ki) were calculated from IC50 using the method by Cheng and Prusoff[65].

human V1bR [3] = target: T2, human V1bR (Homo sapiens, UniProt P47901); experiment: Radioligand displacement of [3H] vasopressin, human V1bR membranes; assay type: binding
T2 construct: expressed in transfected cells; host or cells: HEK293 cells, transient (jetPRIME)
T2 sequence (P47901 1-424): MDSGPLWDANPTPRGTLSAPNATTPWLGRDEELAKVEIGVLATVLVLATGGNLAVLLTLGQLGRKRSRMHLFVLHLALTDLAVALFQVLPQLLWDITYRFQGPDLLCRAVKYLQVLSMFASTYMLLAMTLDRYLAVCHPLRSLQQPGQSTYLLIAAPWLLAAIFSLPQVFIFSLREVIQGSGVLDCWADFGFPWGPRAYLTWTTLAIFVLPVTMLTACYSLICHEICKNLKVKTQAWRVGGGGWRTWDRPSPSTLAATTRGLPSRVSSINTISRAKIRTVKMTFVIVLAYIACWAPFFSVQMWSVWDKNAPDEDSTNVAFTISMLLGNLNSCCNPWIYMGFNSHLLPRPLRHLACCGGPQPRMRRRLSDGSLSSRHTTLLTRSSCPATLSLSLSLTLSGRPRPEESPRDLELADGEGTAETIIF
Description: Unbound ligands were washed off (Skatron Cell Harvester). […] For the displacement at the human OTR, V1aR, V1bR and V2R the normalization to 100% refers on average to 0.49, 1.4, 0.36, 1.1 pmoles of ligand bound per milligram of membrane for human OTR, V1aR, V1bR and V2R, respectively. […] For the displacement at the insect receptors the normalization to 100% refers on average to 0.65 and 0.69 pmoles of ligand bound per milligram of membrane for inotocin receptor from L. niger and T. castaneum, respectively. Bindings of [^3H] inotocin to membranes (10 μg) expressing INTR from L. niger, or [^3H] inotocin to membranes (10 μg) expressing INTR from T. castaneum, respectively, were assayed for displacement with an excess of inotocin (10^−11 to 10^−5 M) (n ≥ 3, except where otherwise stated). […] Specific binding was calculated by subtracting the non-specific binding from the total binding. IC50 values were obtained by fitting the data to a three-parameter logistic Hill equation. Inhibition constants (Ki) were calculated from IC50 using the method by Cheng and Prusoff[65].

human OTR [4] = target: T3, human OTR (Homo sapiens, UniProt P30559); experiment: IP1 accumulation, HEK293 cells expressing human OTR; assay type: cell-based
T3 construct: expressed in transfected cells; host or cells: HEK293 cells, transient (jetPRIME)
T3 sequence (P30559 1-389): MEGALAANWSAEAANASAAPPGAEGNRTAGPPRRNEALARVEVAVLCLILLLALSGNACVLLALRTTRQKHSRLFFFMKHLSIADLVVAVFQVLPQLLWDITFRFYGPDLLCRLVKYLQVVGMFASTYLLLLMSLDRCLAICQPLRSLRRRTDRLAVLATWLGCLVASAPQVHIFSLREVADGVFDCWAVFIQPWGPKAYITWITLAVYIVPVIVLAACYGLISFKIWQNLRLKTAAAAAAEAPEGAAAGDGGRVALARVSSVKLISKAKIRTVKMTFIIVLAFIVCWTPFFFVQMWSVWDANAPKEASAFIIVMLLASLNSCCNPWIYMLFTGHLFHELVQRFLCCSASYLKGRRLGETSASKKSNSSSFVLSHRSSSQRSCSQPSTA
Description: as §1
(§3) Activation of Gq-signalling via the human V1aR, V1bR and OTR, as well as the insect INTR was measured by inositol-1-phosphate (IP1) quantification using an IP1 Tb kit (Cisbio, Codolet, France). Transfected cells were seeded in 96 well-plates, with a cell density of 10^4 cells per well. Cell culture media was removed from the wells after 6 h and 70 μL of peptide of interest, prepared in IP1 1X Stimulation Buffer at the desired concentrations, was added. Samples were measured in technical triplicates. After 1 h incubation at 37 °C, 15 μL of IP1-d2 was added, following the same volume of Ab-cryptate. […] Activation of Gs-signalling via the human V2R was measured using a luciferase reporter assay. HEK293 transiently expressing V2R were co-transfected with the pGL4.29 [luc2P/CRE/Hygro] (Promega, Mannheim, Germany) plasmid. […] For cell-based functional assays (luciferase and IP1), subtraction of the negative control (stimulation buffer) was applied to all data set. The normalization was performed to the highest value of the positive control from at least 4 independent experiments. Data were fitted using GraphPad Prism 5.0 with an equation for non-linear regression (sigmoidal, slope fit of 1). Values are reported as mean ± SEM. For Schild regression analysis, each concentration-ratio (r) was calculated as the agonist EC50 in the presence of a respective concentration of [D-Arg8]-inotocin by the EC50 of the agonist alone.

human V2R [5] = target: T1, human V2R; experiment: cell-based; conditions: luciferase reporter, CRE response element; mean ± SEM; read-out: Potency (EC50)
Description: as §1, §3

human V1bR [6] = target: T2, human V1bR; experiment: cell-based
Description: as §1, §3

human V1aR [7] = target: T4, human V1aR (Homo sapiens, UniProt P37288); experiment: Radioligand displacement of [3H] vasopressin, human V1aR membranes; assay type: binding; design: expressed in transfected cells; host or cells: HEK293 cells, transient (jetPRIME); conditions: human V1aR over OTR, V1bR and V2R
Description: as §1
as §2, with “IC50 values were obtained by fitting the data to a three-parameter logistic Hill equation.” left out

human OTR [8] = target: T3, human OTR; experiment: Radioligand displacement of [3H] oxytocin, human OTR membranes; assay type: binding; conditions: read-out: Affinity (Ki)
Description: as §1
as §2, with “IC50 values were obtained by fitting the data to a three-parameter logistic Hill equation.” left out

human V1aR [9] = target: T4, human V1aR; experiment: IP1 accumulation, HEK293 cells expressing human V1aR; assay type: cell-based; design: expressed in transfected cells; host or cells: HEK293 cells, transient (jetPRIME)
Description: as §1, §3

human V1aR [10] = target: T4, human V1aR; experiment: cell-based
inotocin R (L. niger) = experiment: Radioligand displacement of [3H] inotocin, inotocin receptor from L. niger; design: species or system Lasius niger; conditions: saturation binding experiments
Description: as §1
as §2, with “IC50 values were obtained by fitting the data to a three-parameter logistic Hill equation.” left out

[11] = target: inotocin R (T. castaneum); experiment: Radioligand displacement of [3H] inotocin, inotocin receptor from T. castaneum; design: species or system Tribolium castaneum; conditions: saturation binding experiments
Description: as §1
as §2, with “IC50 values were obtained by fitting the data to a three-parameter logistic Hill equation.” left out

[12] = 100 nM, relative to control activity
[13] = Affinity (Ki), displacement of [3H] vasopressin, mean ± SEM
[14] = IP1 accumulation, mean ± SEM, read-out: Potency (EC50)

T1 sequence (P30518 whole entry): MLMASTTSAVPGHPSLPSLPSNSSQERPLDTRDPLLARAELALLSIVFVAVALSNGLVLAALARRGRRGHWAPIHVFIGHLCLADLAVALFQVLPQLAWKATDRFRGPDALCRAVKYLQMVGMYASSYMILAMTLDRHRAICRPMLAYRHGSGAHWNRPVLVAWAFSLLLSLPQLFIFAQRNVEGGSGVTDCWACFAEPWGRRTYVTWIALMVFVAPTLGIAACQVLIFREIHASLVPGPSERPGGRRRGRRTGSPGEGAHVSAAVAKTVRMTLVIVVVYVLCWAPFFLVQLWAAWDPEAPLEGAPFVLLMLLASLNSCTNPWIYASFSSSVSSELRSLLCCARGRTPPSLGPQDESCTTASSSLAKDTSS
T4 sequence (P37288 whole entry): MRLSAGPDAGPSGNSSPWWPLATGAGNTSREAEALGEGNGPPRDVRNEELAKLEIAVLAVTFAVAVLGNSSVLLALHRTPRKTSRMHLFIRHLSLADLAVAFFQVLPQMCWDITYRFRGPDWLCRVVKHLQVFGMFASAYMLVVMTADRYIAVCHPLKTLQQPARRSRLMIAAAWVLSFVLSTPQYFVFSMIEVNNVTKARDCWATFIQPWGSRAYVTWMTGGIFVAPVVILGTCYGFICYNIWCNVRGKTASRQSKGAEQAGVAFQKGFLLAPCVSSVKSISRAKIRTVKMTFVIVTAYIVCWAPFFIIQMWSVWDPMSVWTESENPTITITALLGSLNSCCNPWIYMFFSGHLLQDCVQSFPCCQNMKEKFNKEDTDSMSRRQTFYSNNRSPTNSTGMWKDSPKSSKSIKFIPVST

In the case of COc1ccc(S(=O)(=O)N2c3ccc(Cl)cc3[C@](O)(c3ccccc3Cl)[C@@H]2C(=O)N2CCC[C@H]2C(N)=O)cc1OC [SR49059, relcovaptan], the “reduction of area-under-the-curve (AUC)” value (human myometrium; [12]) is reported as 72.1%, the “reduction of contraction amplitude” value (human myometrium; [12]) is reported as 54.8% and the “concentration at which decrease in area-under-the-curve became significant” value (human myometrium; tested 1-100 nM) is reported as 30 nM. The “concentration at which decrease in contraction amplitude became significant” value (human myometrium; tested 1-100 nM) was 30 nM.

With CC[C@H](C)[C@H](NC(=O)CN)C(=O)NCC(=O)N[C@@H](C)C(=O)N[C@H](C(=O)N[C@@H](CC(C)C)C(=O)N[C@@H](CCCCN)C(=O)N[C@H](C(=O)N[C@@H](CC(C)C)C(=O)N[C@H](C(=O)N[C@H](C(=O)NCC(=O)N[C@@H](CC(C)C)C(=O)N1CCC[C@H]1C(=O)N[C@@H](C)C(=O)N[C@@H](CC(C)C)C(=O)N[C@H](C(=O)N[C@@H](CO)C(=O)N[C@@H](Cc1c[nH]c2ccccc12)C(=O)N[C@H](C(=O)N[C@@H](CCCCN)C(=O)N[C@@H](CCCNC(=N)N)C(=O)N[C@@H](CCCCN)C(=O)N[C@@H](CCCNC(=N)N)C(=O)N[C@@H](CCC(N)=O)C(=O)N[C@@H](CCC(N)=O)C(N)=O)[C@@H](C)CC)[C@@H](C)CC)[C@@H](C)O)[C@@H](C)O)C(C)C)C(C)C [melittin] the half-life ([1]; human serum, 37 °C, 100 μM peptide, read-out: half-life t½ (converted)) was 42 min and the “degradation in human serum” value ([1]; within 24 h) was “fully degraded”.

CC[C@H](C)[C@@H]1NC(=O)[C@H](CC(C)C)NC(=O)[C@@H](N)CSSC[C@@H](C(=O)N2CCC[C@H]2C(=O)N[C@H](CCCNC(=N)N)C(=O)NCC(N)=O)NC(=O)[C@H](CC(N)=O)NC(=O)[C@H]([C@@H](C)O)NC1=O [[D-Arg8]-inotocin] (H-CLITNCP[dR]G-NH2; disulfide 1-6) gave a Ki (human V2R [2]; [13]) of over 100 µM, a Ki (human V2R [2]; Ki, no significant displacement, human V2 receptor) of over 4 µM and a Ki (human V1bR [3]; [13]) of over 100 µM. The Ki (human V1bR [3]; Ki, no significant displacement, human V1b receptor) was over 4 µM, the EC50 (human OTR [4]; [14]) was over 100 µM and the EC50 (human OTR [4]; IP1 response, human OTR, read-out: EC50) was over 10 µM. The EC50 (human V2R [5]) was 0.164 ± 0.026 µM, the EC50 (human V1bR [6]; [14]) was over 100 µM and the EC50 (human V1bR [6]; IP1 response, human V1bR, read-out: EC50) was over 10 µM. For the same compound, the binding selectivity (human V1aR [7]) was 3,000 fold, the Ki (human OTR [8]) was over 4 µM and the EC50 (human V1aR [9]; [14]) was over 100 µM. The EC50 (human V1aR [9]; IP1 response, human V1aR, read-out: EC50) was over 10 µM, the remaining at 24 h ([1]; human serum, 37 °C, 24 h, read-out: peptide still present after 24 h) was over 70% and the Kb (human V1aR [10]) was 0.0158 µM.

“[^3H] inotocin: tritiated inotocin radioligand, C[4,5-3H]LITNCPGR-NH2 as printed (tritium label; N-terminal Cys; C-terminal amide)” gave a Kd (inotocin R (L. niger)) of 0.0009 µM and a Kd [11] of 0.0027 µM.
